# Assay results taken from US12097192B2 (Corcept Therapeutics Incorporated, priority 2019, dated 2024).
# Assays:
# [1] = system: Cushing's syndrome patients; assay: Cushing's syndrome patient study: coagulation factors, platelets, aPTT; assay type: in vivo, human
# Excerpt: (§1) All patients gave informed consent before participating in any study-related procedures. […] The study protocol called for patient visits to the study site at screening, on Day 1 (baseline), Weeks 2, 4, 6, 8, 10, and 12, and after a 4-week follow-up period for Group 1. For Group 2, the protocol called for patient visits to the study site at screening, on Day 1 (baseline), Weeks 2, 4, 6, 8, 10, 12, 14, and 16, and after a 4-week follow-up period. Patient dosing will be done at home, except on days of study visits. […] The safety protocol also included assessments by physical examination findings, vital signs, ECG results, pregnancy tests, clinical laboratory test results (hematology and chemistry panels), adverse events (AEs), and concomitant medications. […] It ignores noncompliance, protocol deviations, withdrawal, and anything that happens after randomization. In contrast, per-protocol (PP) analysis refers to inclusion in the analysis of only those patients who strictly adhered to the protocol. The PP analysis provides an estimate of the true efficacy of an intervention, i.e., among those who completed the treatment as planned.
# [2] = system: Cushing's syndrome patients; assay: Cushing's syndrome patient study: liver function tests (ALT, AST); assay type: in vivo, human; conditions: All Subjects, mITT
# Excerpt: as §1
# [3] = system: Cushing's syndrome patients; assay: Cushing's syndrome patient study: ECG; assay type: in vivo, human; conditions: All Subjects
# Excerpt: as §1
# [4] = Relacorilant in healthy subjects (human volunteers): tolerability and steady state; assay type: in vivo
# [5] = Group 1 (100-200 mg/day, 12 weeks)
# [6] = Group 2 (250-400 mg/day, 16 weeks)
# [7] = Safety population, Group 1 (100-200 mg/day, 12 weeks)
# [8] = Safety population, Group 2 (250-400 mg/day, 16 weeks)
# [9] = mITT, Group 1 (100-200 mg/day, 12 weeks)
# [10] = mITT, Group 2 (250-400 mg/day, 16 weeks)
smiles,measurement,setting,value
"Cn1cc(S(=O)(=O)N2CCC3=Cc4c(cnn4-c4ccc(F)cc4)C[C@]3(C(=O)c3cc(C(F)(F)F)ccn3)C2)cn1 [relacorilant, (R)-(1-(4-fluorophenyl)-6-((1-methyl-1H-pyrazol-4-yl)sulfonyl)-4,4a,5,6,7,8-hexahydro-1H-pyrazolo[3,4-g]isoquinolin-4a-yl) (4-(trifluoromethyl)pyridin-2-yl)methanone]",Thrombin-Antithrombin mean change from Baseline to Last Observed,"[1]; All Subjects, mPP, Overall",-2.69 µg/L
same,aPTT mean change from Baseline to Last Observed,"[1]; All Subjects, mPP, Overall",1.45 s
same,von Willebrand Factor mean change from Baseline to Last Observed,"[1]; All Subjects, mPP, Overall",6.76%
same,coagulation factors (FIG. 3),[1]; Cushing's syndrome patients,improvement in coagulation factors
same,onset of improvement/normalization of abnormally elevated coagulation factors,[1]; treatment with relacorilant,as early as after one month
same,ALT (SGPT) mean change from Baseline to Last Observed,[2]; [5],−7.88 U/L
same,AST (SGOT) mean change from Baseline to Last Observed,[2]; [5],−2.71 U/L
same,ALT (SGPT) mean change from Baseline to Last Observed,[2]; [6],−13.35 U/L
same,AST (SGOT) mean change from Baseline to Last Observed,[2]; [6],−7.31 U/L
same,ALT (SGPT) mean change from Baseline to Last Observed,[2]; Overall,−10.62 U/L
same,AST (SGOT) mean change from Baseline to Last Observed,[2]; Overall,−4.94 U/L
same,ECG Median Heart Rate mean change from Baseline to Last Observed,[3]; [7],8 beats/min
same,"PR Interval, Aggregate mean change from Baseline to Last Observed",[3]; [7],2.72 ms
same,"QRS Duration, Aggregate mean change from Baseline to Last Observed",[3]; [7],-0.79 ms
same,"QT Interval, Aggregate mean change from Baseline to Last Observed",[3]; [7],-15.85 ms
same,"QTcB Interval, Aggregate mean change from Baseline to Last Observed",[3]; [7],5.58 ms
same,"QTcF Interval, Aggregate mean change from Baseline to Last Observed",[3]; [7],-1.98 ms
same,"RR Interval, Aggregate mean change from Baseline to Last Observed",[3]; [7],-93.14 ms
same,ECG Median Heart Rate mean change from Baseline to Last Observed,[3]; [8],5.23 beats/min
same,"PR Interval, Aggregate mean change from Baseline to Last Observed",[3]; [8],-4.2 ms
same,"QRS Duration, Aggregate mean change from Baseline to Last Observed",[3]; [8],-0.77 ms
same,"QT Interval, Aggregate mean change from Baseline to Last Observed",[3]; [8],-11.04 ms
same,"QTcB Interval, Aggregate mean change from Baseline to Last Observed",[3]; [8],2.28 ms
same,"QTcF Interval, Aggregate mean change from Baseline to Last Observed",[3]; [8],-2.54 ms
same,"RR Interval, Aggregate mean change from Baseline to Last Observed",[3]; [8],-56.67 ms
same,ECG Median Heart Rate mean change from Baseline to Last Observed,"[3]; Safety population, Overall",6.7 beats/min
same,"PR Interval, Aggregate mean change from Baseline to Last Observed","[3]; Safety population, Overall",-0.4 ms
same,"QRS Duration, Aggregate mean change from Baseline to Last Observed","[3]; Safety population, Overall",-0.78 ms
same,"QT Interval, Aggregate mean change from Baseline to Last Observed","[3]; Safety population, Overall",-13.6 ms
same,"QTcB Interval, Aggregate mean change from Baseline to Last Observed","[3]; Safety population, Overall",4.03 ms
same,"QTcF Interval, Aggregate mean change from Baseline to Last Observed","[3]; Safety population, Overall",-2.24 ms
same,"RR Interval, Aggregate mean change from Baseline to Last Observed","[3]; Safety population, Overall",-76.04 ms
same,ECG Median Heart Rate mean change from Baseline to Last Observed,[3]; [9],8 beats/min
same,"PR Interval, Aggregate mean change from Baseline to Last Observed",[3]; [9],2.72 ms
same,"QRS Duration, Aggregate mean change from Baseline to Last Observed",[3]; [9],-0.79 ms
same,"QT Interval, Aggregate mean change from Baseline to Last Observed",[3]; [9],-15.85 ms
same,"QTcB Interval, Aggregate mean change from Baseline to Last Observed",[3]; [9],5.58 ms
same,"QTcF Interval, Aggregate mean change from Baseline to Last Observed",[3]; [9],-1.98 ms
same,"RR Interval, Aggregate mean change from Baseline to Last Observed",[3]; [9],-93.14 ms
same,ECG Median Heart Rate mean change from Baseline to Last Observed,[3]; [10],5.23 beats/min
same,"PR Interval, Aggregate mean change from Baseline to Last Observed",[3]; [10],-4.2 ms
same,"QRS Duration, Aggregate mean change from Baseline to Last Observed",[3]; [10],-0.77 ms
same,"QT Interval, Aggregate mean change from Baseline to Last Observed",[3]; [10],-11.04 ms
same,"QTcB Interval, Aggregate mean change from Baseline to Last Observed",[3]; [10],2.28 ms
same,"QTcF Interval, Aggregate mean change from Baseline to Last Observed",[3]; [10],-2.54 ms
same,"RR Interval, Aggregate mean change from Baseline to Last Observed",[3]; [10],-56.67 ms
same,ECG Median Heart Rate mean change from Baseline to Last Observed,"[3]; mITT, Overall",6.7 beats/min
same,"PR Interval, Aggregate mean change from Baseline to Last Observed","[3]; mITT, Overall",-0.4 ms
same,"QRS Duration, Aggregate mean change from Baseline to Last Observed","[3]; mITT, Overall",-0.78 ms
same,"QT Interval, Aggregate mean change from Baseline to Last Observed","[3]; mITT, Overall",-13.6 ms
same,"QTcB Interval, Aggregate mean change from Baseline to Last Observed","[3]; mITT, Overall",4.03 ms
same,"QTcF Interval, Aggregate mean change from Baseline to Last Observed","[3]; mITT, Overall",-2.24 ms
same,"RR Interval, Aggregate mean change from Baseline to Last Observed","[3]; mITT, Overall",-76.04 ms
same,tolerability of 14 days of dosing,"[4]; human subjects, 14 days at 50 mg, 150 mg and 250 mg",well-tolerated
same,achievement of steady state levels,"[4]; human volunteers, daily dosing",≤ 7 days
same,tolerability of single doses,"[4]; human, in vivo",well-tolerated
same,platelet count,"[4]; some healthy subjects, non-dose-dependent, resolved by study end",transient reduction in platelet count
same,adverse events at 500 mg,[4]; some subjects who received 500-mg relacorilant,(non-serious) musculoskeletal adverse events
same,adverse events with repeat doses,"[4]; some subjects, repeat doses up to 250 mg",mild to moderate musculoskeletal AEs
